Data reported in patent US7173012B2, “Hypoglycaemic peptides and methods of use thereof” (International Diabetes Institute, priority 2001, dated 2007).
“Also recorded” adds a separate entry of the source. Ends that are not written are not given here.

Assays:
[1] = Isoaspartate (β-isomerised) formation in synthetic peptides, by reverse-phase HPLC; format: physicochemical; settings: β-isomerised peptide obtained after synthesis (piperidine deprotection, TFA cleavage), HPLC 214 nm
Description: A mixture of synthetic peptides (Gly-His-Thr-Asp, Val-His-Thr-Asp and Asp-His-Thr-Gly) and their corresponding β-isomerised formation (Gly-His-Thr-βAsp, Val-His-Thr-βAsp and βAsp-His-Thr-Gly) were separated by reverse-phase HPLC and eluted with an isocritic running with 2% buffer B (buffer A is 0.1% trifluoroacetic acid in H2O) at 1 ml/min over 30 min. Peptides were determined by their absorbance at 214 nm.
Based on the structure of the UP-401 peptide, analogues with various sequences were synthesised for further biological characterization as shown in Table 1. All synthetic peptides were purified by RP-HPLC using a C18 column and characterized by mass spectrometry. During synthesis, the peptide chains were treated with base (piperidine) in deprotection steps and then eventually treated with TFA at cleavage steps.
Table 2 and FIG. 5 outline the amino acid sequence of the UP-401 peptide and its analogues, and the ratio of nonisomerized and β-isomerised peptide obtained in each.

[2] = tested on: isolated rat hemidiaphragm muscle; assay: Glycogen synthesis in isolated rat hemidiaphragm muscle (incorporation of 14C-glucose into glycogen, in presence of insulin); format: cell-based; settings: for biological activity on insulin-stimulated glycogen synthesis (in words): isolated rat muscle, FIG. 3 / FIG. 7
Description: Glycogen synthesis in isolated rat hemidiaphragm muscle was measured by the rate of incorporation of radioactive glucose into glycogen (16). Overnight-fasted male albino Wistar rats (20 week old) were killed by decapitation and their hemidiaphragm tissues immediately removed. The hemidiaphragm tissues were pre-incubated for 30 min at 37° C., in Kreb's-Ringer bicarbonate buffer (KRB) containing 1.0% bovine serum albumin BSA, and 1.0 mg/ml glucose gassed pH 7.4. After pre-incubation, the tissues were further incubated for 60 min at 37° C. in 2 ml of incubation buffer in the presence of insulin at a concentration 0.33 μu/ml and the label ^14C-glucose at 0.28 μCi/ml under an atmosphere of carbogen with or without peptide of various concentrations. At the end of the incubation, the tissues were removed and rinsed with cold distilled water, blotted and placed in a plastic centrifuge tubes for glycogen extraction with 30% KOH 10 μl/mg tissue for 5 min in a boiling water bath. The tissue ^14C-glycogen was precipitated with saturated Na2SO4 and absolute alcohol. After centrifugation at 4000×G at 4° C. for 10 min, the supematant was discarded and the precipitate washed twice by resuspending in 66% ethanol and centrifuged as before. The final glycogen precipitate was dissolved in distilled water 30 μl/mg and 1.0 ml of the solution was transferred to a counting vial containing a triton scintillator (8 ml). Radioactivity was determined in a Wallac LKB counter from Pharmacia-Wallac Oy, (Turku, Finland). The total glycogen content in the diaphragm muscle was calculated according to the method of Van Handel (17).
(§1) Experimental procedures for the in vitro and in vivo assays were described in Example 1. In principle, the rate of conversion from glucose into glycogen in isolated hemidiaphragm muscle was used as the index to determine the in vitro activity of peptides (6). The in vivo tests for the peptides were performed on Zucker fatty (fa/fa) rats by i.v. administration of peptides and the reduction of the blood glucose levels was measured and regarded as the index of the hypoglycaemic effect (18).

[3] = tested on: male Zucker fatty (fa/fa) rats; assay: In vivo hypoglycaemic test: blood glucose after i.v. peptide then insulin; design: species or system rat; blood glucose level reduced to a maximum of / Reduction of blood glucose level: unit not given here; settings: for in vivo hypoglycaemic effect on blood glucose levels (in words): i.v., overnight-fasted Zucker fatty rats, compared with saline control or comparator peptide
Description: In vivo tests of the hypoglycaemic peptides were performed on overnight-fasted male Zucker fatty (fa/fa) rats 45 min after induction of anaesthesia with an intraperitoneal injection of sodium pentobarbitone at a dose 60 mg/kg body weight. Basal blood glucose samples were collected from the cut tip of the tail. The two femoral veins in the anaesthetised animals were then exposed, followed immediately by an intravenous injection of saline (control) or peptide into the left femoral vein. Approximately 15 min after the administration of peptide or saline via the left femoral vein, insulin was injected via the right femoral vein. […] Blood glucose levels of the collected samples were measured immediately by the glucose oxidation method using a Yellow Springs YSI modal 2300 STAT Glucose Analyzer (Yellow Spring, Ohio).
as §1

[4] = 3 mg/kg body weight, Example 1, FIG. 4

| Substance | Isoasp [1] | biological activity on insulin-stimulated glycogen synthesis (in words) [2] | Reduction of blood glucose level ([3]; 3 mg, 15 min) | Reduction of blood glucose level ([3]; 3 mg, 30 min) | Reduction of blood glucose level ([3]; 3 mg, 45 min) | Reduction of blood glucose level ([3]; 3 mg, 60 min) | Reduction of blood glucose level ([3]; 3 mg, 75 min) | Reduction of blood glucose level ([3]; 3 mg, 90 min) | in vivo hypoglycaemic effect on blood glucose levels (in words) [3] | also measured |
| --- | --- | --- | --- | --- | --- | --- | --- | --- | --- | --- |
| Asp-His-Thr-Gly-NH2 (DHTG-NH2) [UP-403] | 75.2 | reduced the peptide activity; also recorded: reduced the potency | – | – | – | – | – | – | – | biological activity on insulin-stimulated glycogen synthesis (in words) ([2]; listed as Asp-His-Thr-Gly): also detected |
| Gly-His-Thr-Asp-NH2 (GHTD-NH2) [UP-401] | 45.2 | better insulin-potentiating effect than that of the known insulin-potentiating hGH(6–13) peptide | −0.50 | −0.91 | −1.1 | −0.93 | −0.64 | −0.08 | significant | hypoglycaemic action diminished after [3, 4]: 90 min; in vivo hypoglycaemic action found after the injection (onset) [3, 4]: 15 min; time of maximal hypoglycaemic effect after treatment [3, 4]: 45 min; time of maximal decrease in blood glucose level after treatment ([3]; 3 mg/kg, Example 2): 60 min; increase of glycogen synthesis ([2]; isolated rat hemi-diaphragm, with insulin, synthetic peptide 0.1 μM (FIG. 3)): 36.3% |
| Val-His-Thr-Asp-NH2 (VHTD-NH2) [UP-402] | 48.3 | much higher than that of any other peptide | −0.26 | −0.62 | −1.21 | −1.25 | −0.64 | 0.05 | – | blood glucose level reduced to a maximum of ([3]; 3 mg/kg body weight): 0.95; effect on blood glucose prolonged to ([3]; 4.5 mg/kg body weight, FIG. 8): 120 min; Reduction of blood glucose level ([3]; 4.5 mg, 15 min): −0.43; Reduction of blood glucose level ([3]; 4.5 mg, 30 min): −1.03; Reduction of blood glucose level ([3]; 4.5 mg, 45 min): −1.50; Reduction of blood glucose level ([3]; 4.5 mg, 60 min): −1.45; Reduction of blood glucose level ([3]; 4.5 mg, 75 min): −1.52; Reduction of blood glucose level ([3]; 4.5 mg, 90 min): −1.35; Reduction of blood glucose level ([3]; 4.5 mg, 120 min): 0.07; higher glycogen synthesis ([2]; in vitro, insulin-stimulated, isolated rat muscle (FIG. 7)): 68% |
| Val-His-Thr-Pro-NH2 (VHTP-NH2) [UP-404] | – | reduced the potency | −0.21 | −0.54 | −0.77 | −0.95 | 0.23 | −0.03 | – | biological activity on insulin-stimulated glycogen synthesis (in words) ([2]; listed as Val-His-Thr-Pro): no appreciable stimulation |
| Val-His-Thr-isoAsp-NH2 (VHTX; HELM PEPTIDE1{V.H.T.[O=C(O)[C@H](CC(=O)[*:2])N[*:1]].[am]}$$$$V2.0; N-terminus assumed; SMILES CC(C)[C@H](N)C(=O)N[C@@H](Cc1c[nH]cn1)C(=O)N[C@H](C(=O)N[C@@H](CC(N)=O)C(=O)O)[C@@H](C)O) [UP-406] | – | reduced the potency | – | – | – | – | – | – | No significant difference | biological activity of isoaspartate peptide, reduced to (relative to Val-His-Thr-Asp) ([2]; peptide concentration of 0.1 mM, insulin-stimulated glycogen synthesis): 46% |
| isoAsp-His-Thr-Gly-NH2 (XHTG; HELM PEPTIDE1{[N[C@@H](CC(=O)[*:2])C(=O)O].H.T.G.[am]}$$$$V2.0; N-terminus assumed; SMILES C[C@@H](O)[C@H](NC(=O)[C@H](Cc1c[nH]cn1)NC(=O)C[C@H](N)C(=O)O)C(=O)NCC(N)=O) [UP-407] | – | reduced the peptide activity | – | – | – | – | – | – | – | biological activity on insulin-stimulated glycogen synthesis (in words) ([2]; listed as βAsp-His-Thr-Gly): also detected |
